Data from PMC11868595, “Safety, pharmacokinetics and efficacy of HA121-28 in patients with advanced solid tumors and RET fusion-positive non-small-cell lung cancer: a multicenter, open-label, single-arm phase 1/2 trial” (Signal Transduction and Targeted Therapy, 2025).

Tested on: patients with RET fusion-positive NSCLC
Assay: Phase 2 trial: adverse events (CTCAE)
Assay type: in vivo, human
From the text: The phase 2 trial was still ongoing. It was a single-arm, multicenter, open-label, nonrandomized study to assess the efficacy and safety of HA121-28 in RET-fusion-positive NSCLC.
Patients aged 18–75 years (inclusive) who had unresectable locally advanced or metastatic NSCLC through histologically or cytologically examination were enrolled. Patients were also required to have documented RET fusions centrally examined by next-generation sequencing in certified laboratories but without other oncogenic alterations. Had progression on at least one previous line of standard treatment but have no previous use of other anti-RET inhibitors. The complete lists of inclusion and exclusion criteria of phase 1 and phase 2 are provided in both protocols (in Supplement).
In phase 1 trial, during the dose-escalation part, patients first administered HA121-28 in a single ascending dose under the fasted state, then followed up for seven days. Then, patients received ascending doses of HA121-28 (q.d.) on a 21-day on and 7-day off treatment scheme for a 28-day cycle. For patients deemed beneficial from the treatment by investigators, treatment could remain until disease progression, or they discontinued from the study. In the dose-expansion part of phase 1, as well as phase 2, patients received HA121-28 (q.d.) at the selected doses on a 21-day on and 7-day off treatment scheme until disease progression, or they discontinued from the study.
Treatment-emergent adverse events (TEAEs) were documented during the entire study period. The predefined adverse event of special interest (AESI) was ≥ grade 3 prolonged QT interval. Tumor imaging was performed using contrast-enhanced computed tomography or magnetic resonance imaging at screening, Day 28 of the first cycle, then approximately every eight weeks till the end of the study for phase 1; in phase 2, imaging was scheduled at screening, and every eight weeks during the first 40 weeks, followed by every 12 weeks for the rest of the study period. RECIST 1.1 was used by the independent review committee or investigators for assessment of tumor response. After the original assessment, a repeated assessment was required around four weeks later to confirm a complete or partial response.
The primary endpoint of phase 2 was the independent review committee evaluated ORR using RECIST 1.1. The secondary endpoints included investigators assessed ORR; DCR, PFS, and DOR by the independent review committee and investigators; overall survival and TEAEs. Each TEAE was graded according to CTCAE version 5.0 and coded by MedDRA (version 24.0). The phase 2 trial is ongoing; not all endpoints are reported in this paper.

[1] = Phase 2 study, patient 3 with Grade 3 QTc prolongation
[2] = Phase 2 study, patient 4 with Grade 3 QTc prolongation
[3] = Phase 2 study, patient 5 with Grade 3 QTc prolongation
[4] = Phase 2 study, patient 7 with Grade 3 QTc prolongation
[5] = Phase 2 study, patient 8 with Grade 3 QTc prolongation

## COc1cc2c(Nc3ccc(Br)cc3F)ncnc2cc1OCCCCN(C)C.Cl.Cl [HA121-28, N-(4-bromo-2-fluorophenyl)-7-(4-(dimethylamino)butoxy)-6-methoxy quinazolin-4-amine dihydrochloride]
Phase 2, 450 mg (N=48)
  Serious TEAE: Pneumonia: 1 (2.1) No. (%)
  Serious TEAE: Pneumonitis: 1 (2.1) No. (%)
  Serious TEAE: Prolonged QT interval: 0 No. (%)
  Serious TEAE: Pulmonary embolism: 1 (2.1) No. (%)
  Serious TEAE: Pyrexia: 1 (2.1) No. (%)
  Serious TEAE: Rash: 2 (4.2) No. (%)
  Serious TEAE: Rectal hemorrhage: 0 No. (%)
  Serious TEAE: Respiratory failure: 1 (2.1) No. (%)
  Serious TEAE: Seizure: 0 No. (%)
  Serious TEAE: Septic shock: 1 (2.1) No. (%)
  Serious TEAE: Sudden cardiac arrest: 0 No. (%)
  Serious TEAE: Sudden death: 0 No. (%)
  Serious TEAE: Upper respiratory tract infection: 0 No. (%)
  Serious TEAE: Ventricular tachycardia: 0 No. (%)
  Serious TEAE: Vomiting: 0 No. (%)
  Serious TEAE: Weight loss: 0 No. (%)
  Serious TRAE: ALT increased: 1 (2.1) No. (%)
  Serious TRAE: AST increased: 1 (2.1) No. (%)
  Serious TRAE: Abdominal Pain: 1 (2.1) No. (%)
  Serious TRAE: Abdominal distension: 0 No. (%)
  Serious TRAE: Acute cholecystitis: 0 No. (%)
  Serious TRAE: Acute pancreatitis: 0 No. (%)
  Serious TRAE: Anal abscess: 0 No. (%)
  Serious TRAE: Any: 9 (18.8) No. (%)
  Serious TRAE: Aortic intramural hematoma: 0 No. (%)
  Serious TRAE: Arrhythmia: 0 No. (%)
  Serious TRAE: Blood bilirubin increased: 0 No. (%)
  Serious TRAE: Blood creatinine increased: 0 No. (%)
  Serious TRAE: COVID-19: 0 No. (%)
  Serious TRAE: Cardiac tamponade: 0 No. (%)
  Serious TRAE: Coronary artery atherosclerosis: 0 No. (%)
  Serious TRAE: Death: 0 No. (%)
  Serious TRAE: Dermatitis allergic: 1 (2.1) No. (%)
  Serious TRAE: Diarrhea: 1 (2.1) No. (%)
  Serious TRAE: Drug eruption: 0 No. (%)
  Serious TRAE: Dyspnea: 0 No. (%)
  Serious TRAE: Embolism: 0 No. (%)
  Serious TRAE: Erythema multiforme: 1 (2.1) No. (%)
  Serious TRAE: Headache: 0 No. (%)
  Serious TRAE: Hemoptysis: 0 No. (%)
  Serious TRAE: Hydronephrosis: 0 No. (%)
  Serious TRAE: Hypertension: 2 (4.2) No. (%)
  Serious TRAE: Hypoalbuminemia: 0 No. (%)
  Serious TRAE: Intestinal obstruction: 0 No. (%)
  Serious TRAE: Intra-abdominal fluid collection: 0 No. (%)
  Serious TRAE: Intracranial tumor hemorrhage: 0 No. (%)
  Serious TRAE: Liver injury: 0 No. (%)
  Serious TRAE: Lung adenocarcinoma: 0 No. (%)
  Serious TRAE: Malignant neoplasm progression: 0 No. (%)
  Serious TRAE: Multiple organ dysfunction syndrome: 0 No. (%)
  Serious TRAE: Nausea: 0 No. (%)
  Serious TRAE: Nephrolithiasis: 0 No. (%)
  Serious TRAE: Platelet counts decreased: 0 No. (%)
  Serious TRAE: Pleural effusion: 0 No. (%)
  Serious TRAE: Pneumonia: 0 No. (%)
  Serious TRAE: Pneumonitis: 0 No. (%)
  Serious TRAE: Prolonged QT interval: 0 No. (%)
  Serious TRAE: Pulmonary embolism: 1 (2.1) No. (%)
  Serious TRAE: Pyrexia: 0 No. (%)
  Serious TRAE: Rash: 2 (4.2) No. (%)
  Serious TRAE: Rectal hemorrhage: 0 No. (%)
  Serious TRAE: Respiratory failure: 0 No. (%)
  Serious TRAE: Seizure: 0 No. (%)
  Serious TRAE: Septic shock: 0 No. (%)
  Serious TRAE: Sudden cardiac arrest: 0 No. (%)
  Serious TRAE: Sudden death: 0 No. (%)
  Serious TRAE: Upper respiratory tract infection: 0 No. (%)
  Serious TRAE: Ventricular tachycardia: 0 No. (%)
  Serious TRAE: Vomiting: 0 No. (%)
  Serious TRAE: Weight loss: 0 No. (%)
Phase 2 study, patient 1 with Grade 3 QTc prolongation
  Grade of cardiac TEAE: sinus bradycardia: 1
Phase 2 study, patient 2 with Grade 3 QTc prolongation
  Grade of cardiac TEAE: cronary arteriosclerosis: 2
[1]
  Grade of cardiac TEAE: Supraventricular extrasystoles: 1
  Grade of cardiac TEAE: arhythmia: 1
  Grade of cardiac TEAE: sinus bradycardia: 1
  Grade of cardiac TEAE: ventricular extrasystole: 2
[2]
  Grade of cardiac TEAE: Ejection fraction reduced: 2
  Grade of cardiac TEAE: Left ventricular dysfunction: 2
  Grade of cardiac TEAE: Supraventricular extrasystoles: 1
  Grade of cardiac TEAE: Ventricular wall movement diffusky diminshed: 2
  Grade of cardiac TEAE: nodal tachycardia: 1
[3]
  Grade of cardiac TEAE: T wave abnormal: 1
  Grade of cardiac TEAE: nodal tachycardia: 1
Phase 2 study, patient 6 with Grade 3 QTc prolongation
  Grade of cardiac TEAE: myocardial damage: 2
[4]
  Grade of cardiac TEAE: Supraventricular extrasystoles: 2
  Grade of cardiac TEAE: T wave abnormal: 2
  Grade of cardiac TEAE: U wave abnormal: 2
[5]
  Grade of cardiac TEAE: T wave abnormal: 1
  Grade of cardiac TEAE: nodal tachycardia: 1
Phase 2 study, patient 9 with Grade 3 QTc prolongation
  Grade of cardiac TEAE: nodal tachycardia: 1
Phase 2
  grade ≥ 3 TEAE diarrhea: 12.5%
  grade ≥ 3 TEAE hypertension: 18.8%
  grade ≥ 3 TEAE prolonged QT interval: 31.3%
  patients with at least one SAE: 39.6%
  patients with at least one TRAE: 95.8%
  patients with grade ≥3 TRAEs: 62.5%
  patients with treatment-related SAE: 18.8%
  ≥ grade-3 prolonged QT interval with dose interruption: 14.6%
  ≥ grade-3 prolonged QT interval with dose reduction: 6.3%
